pIC50: −log10 of the molar value.
What follows are molecules tested against T1, EphB4 kinase (Homo sapiens, UniProt P54760) (assay: Inhibition of EphB4 kinase activity (33P incorporation into poly(Glu,Tyr), filter assay)). Details: purified GST-EphB4, 2.0-3.0 μM ATP, poly(Glu,Tyr) 4:1; read-out: IC50 (μmol/l), Inhibition of EphB4 kinase.
T1 construct: made in house; host or cells: Sf9 or Sf21 insect cells (baculovirus)
T1 sequence (P54760 566-987): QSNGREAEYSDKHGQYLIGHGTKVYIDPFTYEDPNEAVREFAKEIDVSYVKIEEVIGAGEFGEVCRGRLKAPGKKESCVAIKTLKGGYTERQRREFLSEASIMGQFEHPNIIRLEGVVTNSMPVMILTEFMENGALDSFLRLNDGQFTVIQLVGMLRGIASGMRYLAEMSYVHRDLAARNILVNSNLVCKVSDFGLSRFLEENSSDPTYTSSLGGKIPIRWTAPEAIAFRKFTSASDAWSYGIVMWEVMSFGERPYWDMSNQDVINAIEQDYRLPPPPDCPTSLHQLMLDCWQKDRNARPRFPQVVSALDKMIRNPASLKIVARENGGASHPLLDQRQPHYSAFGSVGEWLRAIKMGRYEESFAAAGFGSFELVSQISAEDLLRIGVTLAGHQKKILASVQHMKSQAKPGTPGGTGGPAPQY
Type: biochemical
Source text: Generation of Bac-to-Bac™ (Invitrogen Life Technologies, Basel, Switzerland) GST-fusion expression vectors: Entire cytoplasmatic coding regions of the EphB-class are amplified by PCR from cDNA libraries derived from human placenta or brain, respectively. Recombinant baculovirus are generated that express the amino acid region 566-987 of the human EphB4 receptor (SwissProt Database, Accession No. P54760). GST sequence is cloned into pFastBac1® vector (Invitrogen Life Technologies, Basel, Switzerland) and PCR amplified. cDNAs encoding EphB4-receptor domains, respectively are cloned in frame 3′prime to the GST sequence into this modified FastBac1 vector to generate pBac-to-Bac™ donor vectors. Single colonies arising from the transformation are inoculated to give overnight cultures for small scale plasmid preparation. […] By automated sequencing the inserts and approximately 50 bp of the flanking vector sequences are confirmed on both strands.
Production of viruses: Viruses for each of the kinases are made according to the protocol supplied by GIBCO if not stated otherwise. In brief, transfer vectors containing the kinase domains are transfected into the DH10Bac cell line (GIBCO) and plated on selective agar plates. Colonies without insertion of the fusion sequence into the viral genome (carried by the bacteria) are blue. Single white colonies are picked and viral DNA (bac-mid) isolated from the bacteria by standard plasmid purification procedures. Sf9 cells or Sf21 cells are then transfected in 25 cm^2 flasks with the viral DNA using Cellfectin reagent according to the protocol. […]
Protein kinase assays: The activities of protein kinases are assayed in the presence or absence of inhibitors, by measuring the incorporation of ^33P from [γ^33P]ATP into a polymer of glutamic acid and tyrosine (poly(Glu,Tyr)) as a substrate. […] Membranes are counted after drying at ambient temperature, mounting in Packard TopCount96-well frame, and addition of 10 μL/well of Microscint™ (Packard). […]

| pIC50 | Structure (SMILES) |
| --- | --- |
| 6.80 | COc1ccc(-n2ncc3c(Nc4ccccc4C)ncnc32)cc1 [Example 21, [1-(4-Methoxy-phenyl)-1H-pyrazolo[3,4-d]pyrimidin-4-yl]-o-tolyl-amine] |
| 6.30 | COc1ccc(-n2ncc3c(Nc4cc(F)ccc4C)ncnc32)cc1 [Example 23, (5-Fluoro-2-methyl-phenyl)-[1-(4-methoxy-phenyl)-1H-pyrazolo[3,4-d]pyrimidin-4-yl]-amine] |
| 6.40 | Cc1cccc(C)c1Nc1nc(CCCN(C)C)nc2c1cnn2-c1ccccc1 [Example 27, [6-(3-Dimethylamino-propyl)-1-phenyl-1H-pyrazolo[3,4-d]pyrimidin-4-yl]-(2,6-dimethyl-phenyl)-amine] |
